From patent US8853279B2, “Method for determining sensitivity or resistance to compounds that activate the brain serotonin system” (Cornell University, priority 2008, dated 2014)

Key:
BDNF^Met/Met mice = assay: Novelty-induced hypophagia after long-term fluoxetine in adult mice; type: in vivo; details: adult P60 BDNF^Met/Met mice; fluoxetine orally 18 mg/kg of body weight per day for 21 days
Description: A common treatment for depression and anxiety disorders in humans is administering serotonin reuptake inhibitors (SSRI's), for which one postulated mechanism of action involves increasing BDNF levels (R. S. Duman, L. M. Monteggia, Biol Psychiatry 59, 1116 (Jun. 15, 2006)). Adult P60 BDNF^Met/Met mice were treated orally with fluoxetine (18 mg/kg of body weight per day) or vehicle for 21 days before assessment in novelty-induced hypophagia. In this conflict test, mice are trained to approach a reward (sweetened milk) in their home cage and then placed in a novel brightly lit cage. The latency to approach and drink the sweetened milk is a measure of the anxiety-related behavior associated with this task (S. C. Dulawa, K. A. Holick, B. Gundersen, R. Hen, Neuropsychopharmacology 29, 1321 (July, 2004)).

P60 BDNF^Met/Met mice = assay: Two anxiety tests, response to chronic fluoxetine; type: in vivo
Text: It was chosen to continue to use fluoxetine as it is the prototypic SSRI that has been established to increase BDNF levels, and for which a significant amount of clinical data on response to affective disorders.

BDNF^Met mice = assay: Elevated plus maze at P90 after early life fluoxetine (P21-P40); type: in vivo; details: fluoxetine 18 mg/kg per day via drinking water P21-P40, tested at P90
Text: (§1) FIG. 9. Anxiety-related behavior after early life flouxetine in BDNF Val66Met mice in the elevated plus maze test. (A). Percentage time spent in the open arm (B) and percentage of open arm entries in the plus maze, as well as (C) total distance traveled in wildtype) WT and BDNF^Met/Met (Met/Met) mice treated with water (H2O) or with flouxetine (FLX) from P21-P40. All results are presented as a mean±SEM determined from analysis of 5 mice/genotype (*p<0.05), Student's t test.
(§2) The feasibility of these timed pharmacological studies was first assessed. To BDNFMet mice, chronic fluoxetine (18 mg/kg per day) was administered via the drinking water from P21 (post-weaning)-P40 (adolescence) (FIG. 8) for a duration of time established to produce increased BDNF levels and anti-anxiety effects in adult mice [Dulawa, S. C., Holick, K. A., Gundersen, B., and Hen, R. (2004). Effects of chronic fluoxetine in animal models of anxiety and depression. Neuropsychopharmacology 29, 1321-1330; Duman, R. S., and Monteggia, L. M. (2006). A neurotrophic model for stress-related mood disorders. Biol Psychiatry 59, 1116-1127].
(§3) Early-life blockade of the 5-HT transporter alters emotional behavior in adult mice. Science 306, 879-881], which was not observed by this P21-P40 timed treatment.

wildtype mice = assay: as above; type: in vivo; details: fluoxetine 18 mg/kg per day via drinking water P21-P40, tested at P90
Text: as §1, §2, §3

mice = details: fluoxetine treatment at P4-P21; Ansorge et al. 2004; cited from earlier work

Compound: CNCCC(Oc1ccc(C(F)(F)F)cc1)c1ccccc1 (centres unmarked) [fluoxetine]
- latency to drink in the novel cage (BDNF^Met/Met mice): did not significantly decrease
- response to chronic fluoxetine as measured by two anxiety tests (P60 BDNF^Met/Met mice): decreased response
- anxiety-related behavior in the elevated plus maze test (BDNF^Met mice): rescue of altered anxiety-related behavior
- anxiety-related behaviors in the elevated plus maze test (wildtype mice): No effects were observed
- anxiety-related behaviors (mice): increased anxiety-related behaviors
